Measurements: patent US12194048B2, “Use of pyrrolopyridine derivatives for preventing or treating inflammatory diseases” (VORONOI CO., LTD., priority 2020, dated 2025)

Key:
[1] = test system: house dust mite-induced atopic dermatitis model; assay: House dust mite-induced atopic dermatitis model; format: in vivo, NC/Nga mice
Protocol: The backs and ears of NC/Nga mice aged 8 weeks were shaved, and 0.1 g house dust mite cream was applied once every three days for a total of seven times to induce atopic dermatitis. For the negative control group where dermatitis was not induced, a cream not including house dust mites was applied. […] To the comparative control group, the JAK1 inhibitor upadacitinib was orally administered at 6 mg/kg twice daily for 14 days.
After inducing atopic dermatitis using house dust mite cream, symptoms as well as the state of the skin of the cars and backs were scored twice weekly starting from the initial date of administration; the measurements were added and the means are shown in FIG. 9. Furthermore, on the date of termination of the experiment, skin tissue and serum were collected to observe the level of expression of inflammatory cytokines in the tissue and the level of expression of IgE in serum using ELISA analysis; the results are shown in FIG. 10.

[2] = test system: peripheral blood mononuclear cells of inflammatory bowel disease patients; assay: Inflammatory cytokine expression in PBMC of inflammatory bowel disease patients; format: cell-based, human; conditions: treated 24 hours; FIG. 4
[3] = Metabolic stability (MS) evaluation; format: in vitro ADME
NF-κb signaling pathway = assay: Intranuclear movement of p50 and p65 in LPS-stimulated THP-1 cells; format: cell-based; conditions: LPS-treated THP-1 cells; FIG. 1b
PHKG1 = target: T1, PHKG1 (Homo sapiens, UniProt Q16816); assay: scanMAX Kinase analysis panel (DiscoverX); format: binding; conditions: drug 1 μM in DMSO; from % control
T1 construct: purchased DiscoverX scanMAX Kinase analysis panel
Description: (§1) [(Example compound−positive control)/(negative control−positive control)×100]

ALK(L1196M) = target: T2, ALK(L1196M) (Homo sapiens, UniProt Q9UM73, L1196M); assay: scanMAX Kinase analysis panel (DiscoverX); format: binding; conditions: drug 1 μM in DMSO; from % control
T2 construct: purchased DiscoverX scanMAX Kinase analysis panel
Description: as §1

JNK1 = target: T3, JNK1 (Homo sapiens, UniProt P45983); assay: scanMAX Kinase analysis panel (DiscoverX); format: binding; conditions: drug 1 μM in DMSO; from % control
T3 construct: purchased DiscoverX scanMAX Kinase analysis panel
Description: as §1

PLK4 = target: T4, PLK4 (Homo sapiens, UniProt O00444); assay: scanMAX Kinase analysis panel (DiscoverX); format: binding; conditions: drug 1 μM in DMSO; from % control
T4 construct: purchased DiscoverX
Description: as §1

ALK = target: T5, ALK (Homo sapiens, UniProt Q9UM73); assay: scanMAX Kinase analysis panel (DiscoverX); format: binding; conditions: drug 1 μM in DMSO; from % control
T5 construct: purchased DiscoverX scanMAX Kinase analysis panel
Description: as §1

[4] = target: T6, JAK1(JH2domain-pseudokinase) (Homo sapiens, UniProt P23458); assay: scanMAX Kinase analysis panel (DiscoverX); format: binding; conditions: drug 1 μM in DMSO; from % control
T6 construct: JAK1 (JH2domain-pseudokinase); purchased DiscoverX
Description: as §1

LTK = target: T7, LTK (Homo sapiens, UniProt P29376); assay: scanMAX Kinase analysis panel (DiscoverX); format: binding; conditions: drug 1 μM in DMSO; from % control
T7 construct: purchased DiscoverX scanMAX Kinase analysis panel
Description: as §1

JNK3 = target: T8, JNK3 (Homo sapiens, UniProt P53779); assay: scanMAX Kinase analysis panel (DiscoverX); format: binding; conditions: drug 1 μM in DMSO; from % control
T8 construct: purchased DiscoverX
Description: as §1

LRRK2 = target: T9, LRRK2 (Homo sapiens, UniProt Q5S007); assay: scanMAX Kinase analysis panel (DiscoverX); format: binding; conditions: drug 1 μM in DMSO; from % control
T9 construct: purchased DiscoverX
Description: as §1

PAK2 = target: T10, PAK2 (Homo sapiens, UniProt Q13177); assay: scanMAX Kinase analysis panel (DiscoverX); format: binding; conditions: drug 1 μM in DMSO; from % control
T10 construct: purchased DiscoverX scanMAX Kinase analysis panel
Description: as §1

CSNK1A1 = target: T11, CSNK1A1 (Homo sapiens, UniProt P48729); assay: scanMAX Kinase analysis panel (DiscoverX); format: binding; conditions: drug 1 μM in DMSO; from % control
T11 construct: purchased DiscoverX scanMAX Kinase analysis panel
Description: as §1

CAMKK2 = target: T12, CAMKK2 (Homo sapiens, UniProt Q96RR4); assay: scanMAX Kinase analysis panel (DiscoverX); format: binding; conditions: drug 1 μM in DMSO; from % control
T12 construct: purchased DiscoverX scanMAX Kinase analysis panel
Description: as §1

LRRK2(G2019S) = target: T13, LRRK2(G2019S) (Homo sapiens, UniProt Q5S007, G2019S); assay: scanMAX Kinase analysis panel (DiscoverX); format: binding; conditions: drug 1 μM in DMSO; from % control
T13 construct: purchased DiscoverX scanMAX Kinase analysis panel
Description: as §1

CSNK1D = target: T14, CSNK1D (Homo sapiens, UniProt P48730); assay: scanMAX Kinase analysis panel (DiscoverX); format: binding
T14 construct: purchased DiscoverX scanMAX Kinase analysis panel
Description: as §1

ERK5 = target: T15, ERK5 (Homo sapiens, UniProt Q13164); assay: scanMAX Kinase analysis panel (DiscoverX); format: binding; conditions: drug 1 μM in DMSO; from % control
T15 construct: purchased DiscoverX
Description: as §1

MAPKAPK2 = target: T16, MAPKAPK2 (Homo sapiens, UniProt P49137); assay: scanMAX Kinase analysis panel (DiscoverX); format: binding; conditions: drug 1 μM in DMSO; from % control
T16 construct: purchased DiscoverX
Description: as §1

THP-1 cells = assay: Pro-inflammatory cytokine expression in LPS-stimulated THP-1 cells; format: cell-based; conditions: pre-treated 1 hour, then LPS 0.5 μg/ml 24 hours; FIG. 1a
[5] = Plasma stability evaluation; format: in vitro ADME; conditions: LC-MS/MS
Protocol: Hydrolysis in plasma is a factor which, together with metabolic reactions, impacts fast in-vivo decomposition of a drug and short half-life thereof; plasma stability is a test which assesses these. The compound at a certain concentration was added to plasma and reacted for a certain period, then collected, and LC-MS/MS was used to measure the percentage of compound remaining relative to the amount prior to the reaction.

CYP 1A2 = CYP 1A2 (Homo sapiens, UniProt P05177); assay: CYP inhibition assay (luminescence); format: in vitro ADME
Description: (§2) DDI (Drug Interaction) can be observed in a CYP inhibition assay. A luminescence assay was used to measure and evaluate inhibition activity against 1A2, 2C9, 2C19, 2D6 and 3A4, which are important Phase 1 drug metabolism CYP450 enzymes involved in drug metabolism.

CYP 2D6 = CYP 2D6 (Homo sapiens, UniProt P10635); assay: CYP inhibition assay (luminescence); format: in vitro ADME
Description: as §2

CYP 2C19 = CYP 2C19 (Homo sapiens, UniProt P33261); assay: CYP inhibition assay (luminescence); format: in vitro ADME
Description: as §2

CYP 3A4 = CYP 3A4 (Homo sapiens, UniProt P08684); assay: CYP inhibition assay (luminescence); format: in vitro ADME
Description: as §2

CYP 2C9 = CYP 2C9 (Homo sapiens, UniProt P11712); assay: CYP inhibition assay (luminescence); format: in vitro ADME
Description: as §2

hERG = hERG (Homo sapiens, UniProt Q12809); assay: hERG analysis
Caco-2 permeability = format: in vitro ADME; conditions: human
Description: Caco-2 permeability observes the cell membrane permeability of a drug, and can be considered an index associated with drug absorption and excretion.

[6] = Metabolic stability (MS) evaluation; format: in vitro ADME; remark: listed apart in the source

CYP 3A4, sequence (P08684 whole entry): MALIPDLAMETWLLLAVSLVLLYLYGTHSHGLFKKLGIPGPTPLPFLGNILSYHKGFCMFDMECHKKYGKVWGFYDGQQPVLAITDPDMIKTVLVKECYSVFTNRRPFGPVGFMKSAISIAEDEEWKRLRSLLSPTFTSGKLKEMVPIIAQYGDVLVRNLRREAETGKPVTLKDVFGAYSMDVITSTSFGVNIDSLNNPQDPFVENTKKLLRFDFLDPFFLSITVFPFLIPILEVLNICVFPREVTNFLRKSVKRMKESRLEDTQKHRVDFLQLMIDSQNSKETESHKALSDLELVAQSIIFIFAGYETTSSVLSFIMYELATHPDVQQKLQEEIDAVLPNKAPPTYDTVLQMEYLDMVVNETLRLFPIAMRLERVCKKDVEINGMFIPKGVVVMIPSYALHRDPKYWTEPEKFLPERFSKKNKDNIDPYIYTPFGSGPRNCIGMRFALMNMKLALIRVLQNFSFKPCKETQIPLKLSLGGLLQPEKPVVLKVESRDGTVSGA
hERG, sequence (Q12809 whole entry): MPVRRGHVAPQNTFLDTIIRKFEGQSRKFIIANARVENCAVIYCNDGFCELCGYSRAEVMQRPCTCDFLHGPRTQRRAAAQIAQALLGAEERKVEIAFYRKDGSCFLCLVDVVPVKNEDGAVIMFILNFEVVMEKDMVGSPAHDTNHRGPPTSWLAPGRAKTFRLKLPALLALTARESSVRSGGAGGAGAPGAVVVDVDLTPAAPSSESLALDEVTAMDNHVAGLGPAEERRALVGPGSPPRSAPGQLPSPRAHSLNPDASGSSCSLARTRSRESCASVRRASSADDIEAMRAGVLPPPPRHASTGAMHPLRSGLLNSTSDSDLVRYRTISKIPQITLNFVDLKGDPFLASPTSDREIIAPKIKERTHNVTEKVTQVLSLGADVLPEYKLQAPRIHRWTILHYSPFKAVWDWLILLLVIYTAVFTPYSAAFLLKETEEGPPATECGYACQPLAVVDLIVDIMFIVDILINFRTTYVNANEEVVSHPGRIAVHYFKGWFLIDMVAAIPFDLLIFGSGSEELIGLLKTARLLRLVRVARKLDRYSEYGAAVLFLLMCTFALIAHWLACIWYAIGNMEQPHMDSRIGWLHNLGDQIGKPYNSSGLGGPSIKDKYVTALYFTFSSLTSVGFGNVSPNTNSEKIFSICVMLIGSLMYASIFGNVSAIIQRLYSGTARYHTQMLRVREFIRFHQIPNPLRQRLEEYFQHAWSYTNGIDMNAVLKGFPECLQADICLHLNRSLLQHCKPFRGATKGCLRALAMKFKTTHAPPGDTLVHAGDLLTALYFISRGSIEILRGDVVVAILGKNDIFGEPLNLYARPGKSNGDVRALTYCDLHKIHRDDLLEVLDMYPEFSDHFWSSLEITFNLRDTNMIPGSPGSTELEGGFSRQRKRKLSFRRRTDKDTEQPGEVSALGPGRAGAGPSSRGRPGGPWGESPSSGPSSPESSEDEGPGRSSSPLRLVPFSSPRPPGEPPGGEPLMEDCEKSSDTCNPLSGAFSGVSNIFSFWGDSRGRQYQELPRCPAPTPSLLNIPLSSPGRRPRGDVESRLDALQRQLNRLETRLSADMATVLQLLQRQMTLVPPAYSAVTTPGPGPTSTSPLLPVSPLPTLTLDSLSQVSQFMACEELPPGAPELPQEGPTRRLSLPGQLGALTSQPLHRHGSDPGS
T11 sequence (P48729 whole entry): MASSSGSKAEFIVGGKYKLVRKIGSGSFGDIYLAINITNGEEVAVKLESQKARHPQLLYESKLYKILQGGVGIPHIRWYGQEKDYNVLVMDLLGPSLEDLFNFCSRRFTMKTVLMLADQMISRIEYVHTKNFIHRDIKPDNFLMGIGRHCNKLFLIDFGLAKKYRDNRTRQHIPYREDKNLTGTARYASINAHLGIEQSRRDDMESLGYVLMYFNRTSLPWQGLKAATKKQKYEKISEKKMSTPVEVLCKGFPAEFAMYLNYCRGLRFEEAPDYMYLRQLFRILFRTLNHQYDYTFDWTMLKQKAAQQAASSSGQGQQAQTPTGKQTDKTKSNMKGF
T12 sequence (Q96RR4 whole entry): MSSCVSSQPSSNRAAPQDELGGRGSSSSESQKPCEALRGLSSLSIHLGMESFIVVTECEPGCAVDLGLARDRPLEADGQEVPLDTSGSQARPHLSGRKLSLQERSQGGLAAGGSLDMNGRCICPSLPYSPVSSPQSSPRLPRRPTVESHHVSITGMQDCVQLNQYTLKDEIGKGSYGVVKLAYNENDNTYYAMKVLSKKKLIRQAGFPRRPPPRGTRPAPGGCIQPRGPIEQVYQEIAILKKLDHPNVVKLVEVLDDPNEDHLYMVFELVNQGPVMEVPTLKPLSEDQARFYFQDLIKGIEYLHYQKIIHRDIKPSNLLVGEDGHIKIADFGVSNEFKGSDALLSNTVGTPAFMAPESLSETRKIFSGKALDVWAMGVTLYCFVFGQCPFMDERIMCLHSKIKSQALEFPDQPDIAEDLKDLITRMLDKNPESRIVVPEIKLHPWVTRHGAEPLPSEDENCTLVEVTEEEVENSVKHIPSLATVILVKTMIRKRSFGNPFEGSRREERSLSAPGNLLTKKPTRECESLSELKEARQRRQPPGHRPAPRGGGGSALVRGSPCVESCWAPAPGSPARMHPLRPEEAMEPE
T5 sequence (Q9UM73 19-1620): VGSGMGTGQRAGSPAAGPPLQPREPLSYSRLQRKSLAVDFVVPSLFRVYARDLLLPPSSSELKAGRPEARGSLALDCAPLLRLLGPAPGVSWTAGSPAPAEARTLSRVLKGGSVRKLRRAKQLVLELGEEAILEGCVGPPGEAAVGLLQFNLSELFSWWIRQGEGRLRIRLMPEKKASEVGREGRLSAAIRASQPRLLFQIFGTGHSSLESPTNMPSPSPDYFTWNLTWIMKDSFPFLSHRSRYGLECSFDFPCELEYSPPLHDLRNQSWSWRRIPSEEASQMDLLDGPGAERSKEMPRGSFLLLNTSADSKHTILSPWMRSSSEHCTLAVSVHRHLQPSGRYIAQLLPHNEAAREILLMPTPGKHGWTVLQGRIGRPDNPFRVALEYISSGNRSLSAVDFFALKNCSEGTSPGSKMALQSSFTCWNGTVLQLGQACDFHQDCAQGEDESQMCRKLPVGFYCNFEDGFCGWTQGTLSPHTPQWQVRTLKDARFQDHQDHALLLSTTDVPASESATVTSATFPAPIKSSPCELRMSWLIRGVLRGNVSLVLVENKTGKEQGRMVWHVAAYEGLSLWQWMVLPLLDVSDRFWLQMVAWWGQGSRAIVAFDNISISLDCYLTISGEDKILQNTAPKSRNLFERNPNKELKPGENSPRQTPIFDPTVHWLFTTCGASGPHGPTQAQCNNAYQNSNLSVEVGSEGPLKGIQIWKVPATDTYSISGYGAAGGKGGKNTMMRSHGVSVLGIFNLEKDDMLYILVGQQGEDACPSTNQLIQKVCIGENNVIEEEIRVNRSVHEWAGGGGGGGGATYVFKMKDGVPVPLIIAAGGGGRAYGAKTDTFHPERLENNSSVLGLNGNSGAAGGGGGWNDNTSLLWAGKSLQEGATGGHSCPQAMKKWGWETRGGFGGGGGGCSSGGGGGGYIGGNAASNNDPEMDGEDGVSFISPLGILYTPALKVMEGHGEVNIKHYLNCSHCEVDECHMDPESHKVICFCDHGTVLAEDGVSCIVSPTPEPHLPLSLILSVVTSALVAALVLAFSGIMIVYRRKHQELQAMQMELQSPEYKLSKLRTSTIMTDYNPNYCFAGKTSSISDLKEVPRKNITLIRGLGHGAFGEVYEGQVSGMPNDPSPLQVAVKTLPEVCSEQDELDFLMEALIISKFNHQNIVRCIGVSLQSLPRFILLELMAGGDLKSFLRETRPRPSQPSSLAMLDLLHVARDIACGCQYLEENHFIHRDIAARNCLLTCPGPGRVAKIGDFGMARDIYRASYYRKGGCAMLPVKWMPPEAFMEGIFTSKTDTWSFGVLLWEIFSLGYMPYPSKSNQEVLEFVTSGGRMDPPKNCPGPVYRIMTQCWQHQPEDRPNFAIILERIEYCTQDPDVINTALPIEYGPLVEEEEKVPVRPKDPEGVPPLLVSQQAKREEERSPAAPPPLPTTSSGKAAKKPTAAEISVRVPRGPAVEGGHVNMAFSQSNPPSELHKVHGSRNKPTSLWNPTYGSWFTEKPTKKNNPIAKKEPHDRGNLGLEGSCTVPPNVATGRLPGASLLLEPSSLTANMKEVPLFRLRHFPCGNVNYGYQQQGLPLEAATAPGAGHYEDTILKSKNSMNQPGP
CYP 1A2, sequence (P05177 whole entry): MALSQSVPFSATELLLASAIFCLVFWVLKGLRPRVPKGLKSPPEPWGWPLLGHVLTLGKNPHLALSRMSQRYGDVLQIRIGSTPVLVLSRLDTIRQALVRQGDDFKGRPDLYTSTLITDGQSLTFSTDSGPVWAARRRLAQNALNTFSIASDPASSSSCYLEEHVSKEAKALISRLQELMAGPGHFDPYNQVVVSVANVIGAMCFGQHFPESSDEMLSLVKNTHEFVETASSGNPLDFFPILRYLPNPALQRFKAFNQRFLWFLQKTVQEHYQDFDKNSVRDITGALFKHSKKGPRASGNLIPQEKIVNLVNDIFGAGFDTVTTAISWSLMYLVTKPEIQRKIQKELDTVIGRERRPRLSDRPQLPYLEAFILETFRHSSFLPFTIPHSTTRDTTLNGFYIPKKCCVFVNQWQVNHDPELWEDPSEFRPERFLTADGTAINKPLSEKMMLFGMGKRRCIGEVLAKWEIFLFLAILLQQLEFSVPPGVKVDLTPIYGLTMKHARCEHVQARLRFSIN
T6 sequence (P23458 583-855 limits assumed): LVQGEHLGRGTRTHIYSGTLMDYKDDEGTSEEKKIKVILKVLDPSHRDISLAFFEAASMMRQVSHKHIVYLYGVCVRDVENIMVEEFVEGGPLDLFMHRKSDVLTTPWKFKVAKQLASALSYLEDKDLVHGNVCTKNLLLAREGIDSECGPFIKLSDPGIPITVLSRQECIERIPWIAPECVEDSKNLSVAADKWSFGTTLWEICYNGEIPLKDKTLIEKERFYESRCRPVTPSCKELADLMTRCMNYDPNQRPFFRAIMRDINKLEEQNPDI
T2 sequence (Q9UM73 19-1620 L1196M): as the sequence (Q9UM73 19-1620) above, with L1178M counted along it

MS (1 μM) (% remaining during 30 min) Dog [3]: 96%
inhibition at 1 µM (PHKG1): ≥ 59%
inhibition at 1 µM (ALK(L1196M)): ≥ 59%
inhibition at 1 µM (JNK1): ≥ 59%
inhibition at 1 µM (PLK4): 40 to 59%
inhibition at 1 µM (ALK): ≥ 59%
inhibition at 1 µM [4]: 40 to 59%
inhibition at 1 µM (LTK): ≥ 59%
inhibition at 1 µM (JNK3): 40 to 59%
inhibition at 1 µM (LRRK2): 40 to 59%
inhibition at 1 µM (PAK2): ≥ 59%
inhibition at 1 µM (CSNK1A1): 40 to 59%
inhibition at 1 µM (CAMKK2): 40 to 59%
inhibition at 1 µM (LRRK2(G2019S)): ≥ 59%
inhibition at 1 µM (CSNK1D): ≥ 59%
inhibition at 1 µM (ERK5): 40 to 59%
inhibition at 1 µM (MAPKAPK2): 40 to 59%
Plasma stability (% remaining, 30 min) ([5]; 30 min): 100%
Plasma stability (% remaining, 120 min) ([5]; 120 min): 97.2%
CYP (10 μM) (% of control activity 1A2) (CYP 1A2): 86%
CYP (10 μM) (% of control activity 2D6) (CYP 2D6): 92%
CYP (10 μM) (% of control activity 2C19) (CYP 2C19): 84%
CYP 3A4 enzyme inhibition activity (in words) (CYP 3A4): almost no enzyme inhibition activity
CYP (10 μM) (% of control activity 3A4) (CYP 3A4; 10 μM): 72%
CYP (10 μM) (% of control activity 2C9) (CYP 2C9): 74%
Papp (Caco-2 permeability): 0.201 ×10⁻⁶ cm/s
MS (1 μM) (% remaining during 30 min) Mouse [6]: 40%
Compound: CCNc1cc(Nc2ccc(C(=O)N3CCC(N4CCOCC4)CC3)cc2OC)nc2[nH]cc(C(F)(F)F)c12 [Compound 1, (4-((4-(ethylamino)-3-(trifluoromethyl)-1H-pyrrolo[2,3-b]pyridine-6-yl)amino)-3-methoxyphenyl)(4-morpholinopiperidine-1-yl)methanone]
dermatitis on the back and ears ([1]; 10, 20 and 30 mpk orally twice daily for 14 days, FIG. 9): alleviated in a concentration-dependent manner
IgE expression in serum ([1]; 10, 20 and 30 mpk, ELISA, FIG. 10): concentration-dependent reduction
alleviating dermatitis ([1]; 30 mpk orally twice daily for 14 days): most effective
IgE expression in serum ([1]; 30 mpk, ELISA, FIG. 10): statistically significant reduction
inflammatory cytokine expression in the back tissue ([1]; 30 mpk, against the control group, ELISA, FIG. 10): statistically significant reduction
alleviating atopic dermatitis, compared with upadacitinib control group ([1]; upadacitinib 6 mg/kg orally twice daily for 14 days): more effective
expression of IL-6 [2]: effectively inhibiting
expression of IL-17A [2]: effectively inhibiting
expression of TNF-α [2]: effectively inhibiting
intranuclear movement of p50 (NF-κb signaling pathway): effectively inhibited
intranuclear movement of p65 (NF-κb signaling pathway): effectively inhibited
expression of IL-6 (THP-1 cells): effectively inhibited
expression of TNF-α (THP-1 cells): effectively inhibited
IC50 (hERG): 4.39 µM
cardiac toxicity (hERG, in words) (hERG): excellent safety in terms of cardiac toxicity
